Experimental findings from US7129351B2, “Pyrimido compounds having antiproliferative activity” (Hoffmann-La Roche Inc., priority 2002, dated 2006) are described below.

Molecules are shown by their SMILES. Where two headings read alike, the source gives them in different places.

For data set [1], the target named is T1, Src (p60^c-src) (Homo sapiens, UniProt P12931).
T1 construct: purchased Upstate (UBI)
Kind of data set: SRC-Inhibitor-Assay (homogenous time-resolved fluorescence kinase assay). It counts as biochemical. On the procedure:
The activity of the compounds according to this invention as inhibitors for the src-family tyrosine kinases was shown by using the following assay.
SRC-Inhibitor-Assay Parameters:
whereby both peptides were synthesized by an optimized solid phase peptide synthesis protocol (Merrifield (1962) Fed. Proc. Fed. Amer. Soc Exp. Biol. 21, 412) on an Zinsser SMP350 peptide synthesizer. Shortly, the peptide was assembled on 160 mg (22.8 μmol scale) of a Rink-Linker modified polystyrene solid phase by repeatedly conjugating a twenty fold excess of aminoacids each protected by temporary piperidine labile Fmoc- and permanent acid labile tert-Bu-, BOC- and O-tert-Bu-groups depending on the side chain function. The substrate sequence AEEEIYGEFEAKKKK was N-terminal additionally mounted with the spacer amino acids Aminocaprylic acid and Glycin. After cleavage of the N-terminal temporary protecting group the still attached and protected peptide was labeled with a 1.5 fold amount of LightCycler-Red 640-N-hydroxy succinimide ester (purchased from Roche Diagnostics GmbH) and triethylamine. After 3 hrs. the resin was washed with dimethylformamide and isopropanol until the eluates of the blue resin got colourless. […] The substrate was finally isolated by a preparative reverse phase HPLC purification. The purification yielded 12.2 mg RP-HPLC single peak pure blue material (lyophilisate). The identity was proven by MALDI mass spectroscopy [2720.0]. • Enzymes: Upstate Lck (p56^lck, active), Upstate Src (p60^c-src, partially purified) were purchased from UBI. • Homogenous, time-resolved Fluorescence Assay: Reader: Perkin Elmer, Wallac Viktor 1420-040 multilabel counter; Liquid handling system: Beckman Coulter, Biomek 2000. • ATP, Tween 20, HEPES were purchased from Roche Molecular Biochemicals, MgCl2 and MnCl2 were purchased from Merck Eurolab, TCEP was purchased from Pierce, 384 Well low volume fluorescence plates was purchased from Falcon. Assay Description:
At first the enzyme is pre-incubated for 15 min. at 15° C. in aqueous solution with corresponding amounts of inhibitors according to this invention. Then the phosphorylation reaction is started by adding a reaction mixture, containing ATP, Peptide and PT66, and subsequent shaking. The proceeding of this reaction is immediately monitored using time resolved fluorescence spectroscopy in a suitable well plate reader.
The IC50-values can be obtained from the reaction rates by using a non-linear curve fit (Excelfit).

[2] abbreviates: ATP 5 μM, enzyme 2.5 U/mL, pre-incubated 15 min at 15° C., read-out: IC50 (μM) - Enzyme Inhibition Assay, Src.

T1 sequence (P12931 whole entry): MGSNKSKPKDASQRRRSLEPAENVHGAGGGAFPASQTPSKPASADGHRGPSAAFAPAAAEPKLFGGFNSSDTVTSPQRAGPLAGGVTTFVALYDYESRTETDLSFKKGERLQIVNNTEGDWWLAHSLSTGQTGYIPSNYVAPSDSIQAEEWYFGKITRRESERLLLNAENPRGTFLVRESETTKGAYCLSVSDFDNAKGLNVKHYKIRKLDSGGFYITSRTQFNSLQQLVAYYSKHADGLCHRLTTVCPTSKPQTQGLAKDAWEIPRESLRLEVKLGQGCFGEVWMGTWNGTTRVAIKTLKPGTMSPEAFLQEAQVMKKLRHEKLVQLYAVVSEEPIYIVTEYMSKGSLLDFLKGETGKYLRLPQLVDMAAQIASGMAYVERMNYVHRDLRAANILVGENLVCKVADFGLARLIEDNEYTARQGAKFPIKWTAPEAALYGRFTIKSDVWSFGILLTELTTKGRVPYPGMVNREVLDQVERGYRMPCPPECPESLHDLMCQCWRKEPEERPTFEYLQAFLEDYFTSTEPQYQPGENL

What is called IC50 is the concentration that inhibits the measured activity by half. In general, melting point refers to the temperature, or range, at which the solid turns liquid. On to `COc1ccc(N2C(=O)N(c3cccc(C#N)c3)c3nc(Nc4cccc(CCO)c4)ncc3C2C)cc1` (racemic) [Example 4, (±)-3-[7-[3-(2-hydroxy-ethyl)-phenylamino]-3-(4-methoxy-phenyl)-4-methyl-2-oxo-3,4-dihydro-2H-pyrimido[4,5-d]pyrimidin-1-yl]-benzonitrile], for which the melting point fell in the range of 195 to 200 °C. Also, in data set [1] (setting [2]), the IC50 is under 1 µM.

As for `CCN(CC)CCc1cccc(Nc2ncc3c(n2)N(c2cccc(C#N)c2)C(=O)N(c2ccc(OC)cc2)C3C)c1` (racemic) [Example 5b, (±)-3-[7-[3-(2-diethylamino-ethyl)-phenylamino]-3-(4-methoxy-phenyl)-4-methyl-2-oxo-3,4-dihydro-2H-pyrimido[4,5-d]pyrimidin-1-yl]-benzonitrile], the melting point was 128 to 145 °C. The IC50 in data set [1] (setting [2]) was under 1 µM.

`COc1ccc(N2C(=O)N(c3cccc(C#N)c3)c3nc(Nc4cccc(CCN(C)C)c4)ncc3C2C)cc1` (racemic) [Example 6, (±)-3-[7-[3-(2-dimethylamino-ethyl)-phenylamino]-3-(4-methoxy-phenyl)-4-methyl-2-oxo-3,4-dihydro-2H-pyrimido[4,5-d]pyrimidin-1-yl]-benzonitrile] came in with a melting point of 120 to 135 °C. Also, the IC50 in data set [1] (setting [2]) was under 1 µM.

`COc1ccc(N2C(=O)N(c3cccc(C#N)c3)c3nc(Nc4cccc(CCN5CCN(C)CC5)c4)ncc3C2C)cc1` (racemic) [Example 7, (±)-3-(3-(4-methoxy-phenyl)-4-methyl-7-{3-[2-(4-methyl-piperazin-1-yl)-ethyl]-phenylamino}-2-oxo-3,4-dihydro-2H-pyrimido[4,5-d]pyrimidin-1-yl)-benzonitrile]: the melting point lay within 134 to 155 °C. In addition, the IC50 in data set [1] (setting [2]) is under 1 µM.

`CCN(CC)CCc1cccc(Nc2ncc3c(n2)N(c2cccc(C(N)=O)c2)C(=O)N(c2ccc(OC)cc2)C3C)c1` (racemic) [Example 8, (±)-3-[7-[3-(2-diethylamino-ethyl)-phenylamino]-3-(4-methoxy-phenyl)-4-methyl-2-oxo-3,4-dihydro-2H-pyrimido[4,5-d]pyrimidin-1-yl]-benzamide] registered a melting point of 170 to 175 °C. Moreover, in data set [1] (setting [2]), the IC50 is under 1 µM. Besides, the IC50 in data set [1] (printed at the end of the Example 8 characterisation data, kinase not named at that place, read-out: IC50) stood at 0.0045 µM.

With `COc1ccc(N2C(=O)N(c3cccc(C(N)=O)c3)c3nc(Nc4cccc(CCN(C)C)c4)ncc3C2C)cc1` (racemic) [Example 9, (±)-3-[7-[3-(2-dimethylamino-ethyl)-phenylamino]-3-(4-methoxy-phenyl)-4-methyl-2-oxo-3,4-dihydro-2H-pyrimido[4,5-d]pyrimidin-1-yl]-benzamide], the melting point lay within 215 to 230 °C. In addition, in data set [1] (setting [2]), the IC50 was under 1 µM.

The molecule `COc1ccc(N2C(=O)N(c3cccc(C(N)=O)c3)c3nc(Nc4cccc(CCN5CCN(C)CC5)c4)ncc3C2C)cc1` (racemic) [Example 10, (±)-3-(3-(4-methoxy-phenyl)-4-methyl-7-{3-[2-(4-methyl-piperazin-1-yl)-ethyl]-phenylamino}-2-oxo-3,4-dihydro-2H-pyrimido[4,5-d]pyrimidin-1-yl)-benzamide] returned a melting point of 243 to 251 °C. In addition, the IC50 in data set [1] (setting [2]) was under 1 µM.
